Our source for the DC50 values is patent publication US20240158418A1 (C4 Therapeutics, Inc., priority 2021, published 2024).

T1 sequence (P00533 25-1210 T790M/L858R): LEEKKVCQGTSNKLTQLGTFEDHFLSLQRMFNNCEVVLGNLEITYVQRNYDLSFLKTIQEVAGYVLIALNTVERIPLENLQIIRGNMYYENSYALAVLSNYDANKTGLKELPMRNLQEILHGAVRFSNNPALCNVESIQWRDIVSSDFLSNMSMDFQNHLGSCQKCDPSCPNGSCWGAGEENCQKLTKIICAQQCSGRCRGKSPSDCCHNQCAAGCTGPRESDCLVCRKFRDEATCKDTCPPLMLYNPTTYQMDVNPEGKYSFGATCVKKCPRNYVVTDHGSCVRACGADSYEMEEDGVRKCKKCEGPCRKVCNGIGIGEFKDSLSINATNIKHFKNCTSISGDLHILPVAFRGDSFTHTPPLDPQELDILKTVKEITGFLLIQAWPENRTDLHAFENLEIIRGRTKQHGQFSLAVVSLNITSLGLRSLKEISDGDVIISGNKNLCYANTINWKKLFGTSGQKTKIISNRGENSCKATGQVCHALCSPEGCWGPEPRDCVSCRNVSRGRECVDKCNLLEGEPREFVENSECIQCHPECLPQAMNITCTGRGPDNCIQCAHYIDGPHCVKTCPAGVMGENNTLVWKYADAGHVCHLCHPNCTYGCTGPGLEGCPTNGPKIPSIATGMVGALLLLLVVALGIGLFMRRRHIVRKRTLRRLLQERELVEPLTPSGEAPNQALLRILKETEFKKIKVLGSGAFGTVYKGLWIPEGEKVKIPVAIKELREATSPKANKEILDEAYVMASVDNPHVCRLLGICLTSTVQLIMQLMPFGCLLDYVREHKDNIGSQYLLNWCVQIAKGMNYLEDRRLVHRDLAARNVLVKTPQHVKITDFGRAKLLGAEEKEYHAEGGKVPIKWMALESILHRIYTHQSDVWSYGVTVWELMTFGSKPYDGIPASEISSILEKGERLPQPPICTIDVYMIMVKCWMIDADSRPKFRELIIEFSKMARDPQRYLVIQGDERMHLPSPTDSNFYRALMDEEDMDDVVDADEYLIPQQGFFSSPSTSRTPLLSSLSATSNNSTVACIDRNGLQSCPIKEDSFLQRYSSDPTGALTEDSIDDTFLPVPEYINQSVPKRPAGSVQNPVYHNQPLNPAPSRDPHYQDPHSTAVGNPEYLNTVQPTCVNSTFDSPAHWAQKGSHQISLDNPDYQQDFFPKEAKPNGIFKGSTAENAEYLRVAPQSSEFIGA

The first assay concerns the target T1, EGFR L858R-T790M (Homo sapiens, UniProt P00533, L858R/T790M).
T1 construct: NCI-H1975 (harboring EGFR heterozygous L858R-T790M mutations); host or cells: NCI-H1975
Briefly: EGFR degradation, Total EGFR (L858R-specific) HTRF, NCI-H1975. As to conditions: Table 9A; NCI-H1975 cells, 6 hours, Total EGFR HTRF; read-out: H1975 EGFR DC50. Format: cell-based. The gist of the method:
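Cells in RPMI 1640 + 10% FBS treated 6 h at 37°C with compound, 11-point half-log titration from 10 μM top, in duplicate. pY1068 and total EGFR read by HTRF (pan-EGFR antibody for wild-type A431; L858R-specific for mutants); IC50 for phospho inhibition, DC50 for 50% degradation.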
Background: In TR-FRET formats the signal depends on donor and acceptor labels being close together.
Usually DC50 stands for the concentration giving 50% degradation. As for `O=C1CC[C@H](Nc2ccc(C3CCN(CC(=O)N4CC[C@H](Oc5ccc(-c6cc(F)c7c(c6)C(=O)N(C(C(=O)Nc6nccs6)c6ncn8c6CCC8)C7)cc5)C4)CC3)cc2)C(=O)N1` (stereo partly drawn) [Compound 42, 2-(6,7-dihydro-5H-pyrrolo[1,2-c]imidazol-1-yl)-2-[6-[4-[(3S)-1-[2-[4-[4-[[(3S)-2,6-dioxo-3-piperidyl]amino]phenyl]-1-piperidyl]acetyl]pyrrolidin-3-yl]oxyphenyl]-4-fluoro-1-oxo-isoindolin-2-yl]-N-thiazol-2-yl-acetamide], the DC50 was below 50 nM. Same read-out and setting: under `O=C1CCC(Nc2cccc(C3CCN(CC(=O)N4CCN(c5ccc(-c6cc(F)c7c(c6)C(=O)N(C(C(=O)Nc6nccs6)c6ncn8c6CCC8)C7)cc5)CC4)CC3)c2)C(=O)N1` (stereo not drawn) [Compound 16, 2-(6,7-dihydro-5H-pyrrolo[1,2-c]imidazol-1-yl)-2-(6-(4-(4-(2-(4-(3-((2,6-dioxopiperidin-3-yl)amino)phenyl)piperidin-1-yl)acetyl)piperazin-1-yl)phenyl)-4-fluoro-1-oxoisoindolin-2-yl)-N-(thiazol-2-yl)acetamide] stands 50 to 150 nM; under `O=C1CCC(Nc2ccc(C3CCN(CC(=O)N4CCC(Oc5ccc(-c6cc(F)c7c(c6)C(=O)N(C(C(=O)Nc6nccs6)c6ncn8c6CCC8)C7)cc5)CC4)CC3)nc2)C(=O)N1` (stereo not drawn) [Compound 36, 2-(6,7-dihydro-5H-pyrrolo[1,2-c]imidazol-1-yl)-2-(6-(4-((1-(2-(4-(5-((2,6-dioxopiperidin-3-yl)amino)pyridin-2-yl)piperidin-1-yl)acetyl)piperidin-4-yl)oxy)phenyl)-4-fluoro-1-oxoisoindolin-2-yl)-N-(thiazol-2-yl)acetamide], below 50 nM.

Staying with this assay, now noted: Table 9B; NCI-H1975 cells, 6 hours, Total EGFR HTRF; read-out: H1975 EGFR DC50.
Turning to `O=C1CCC(Nc2ccc(N3CCCC(O)(CC(=O)N4CC5(C4)CN(c4ccc(-c6cc(F)c7c(c6)C(=O)N(C(C(=O)Nc6nccs6)c6ncn8c6CCC8)C7)cc4)C5)CC3)c(F)c2)C(=O)N1` (single isomer, unassigned; isomer a1) [Compound 164, 2-(6,7-dihydro-5H-pyrrolo[1,2-c]imidazol-1-yl)-2-[6-[4-[2-[2-[1-[4-[[2,6-dioxo-3-piperidyl]amino]-2-fluoro-phenyl]-4-hydroxy-azepan-4-yl]acetyl]-2,6-diazaspiro[3.3]heptan-6-yl]phenyl]-4-fluoro-1-oxo-isoindolin-2-yl]-N-thiazol-2-yl-acetamide, isomer A1], the 50% degradation concentration (DC50) was in the range of 50 to 150 nM. Still for that read-out and setting: under `O=C1CCC(Nc2cnc(C3CCN(CC(=O)N4CC5(C4)CN(c4ccc(-c6cc(F)c7c(c6)C(=O)N(C(C(=O)Nc6nccs6)c6ncn8c6CCC8)C7)cc4)C5)CC3)c(F)c2)C(=O)N1` (stereo not drawn) [Compound 112, 2-(6,7-dihydro-5H-pyrrolo[1,2-c]imidazol-1-yl)-2-(6-(4-(6-(2-(4-(5-((2,6-dioxopiperidin-3-yl)amino)-3-fluoropyridin-2-yl)piperidin-1-yl)acetyl)-2,6-diazaspiro[3.3]heptan-2-yl)phenyl)-4-fluoro-1-oxoisoindolin-2-yl)-N-(thiazol-2-yl)acetamide] stands below 50 nM; under `O=C1CC[C@H](Nc2ccc(N3CCC(O)(CC(=O)N4CC5(C4)CN(c4ccc(-c6cc(F)c7c(c6)C(=O)N(C(C(=O)Nc6nccs6)c6ncn8c6CCC8)C7)cn4)C5)CC3)c(F)c2)C(=O)N1` (stereo partly drawn) [Compound 110, 2-(6,7-dihydro-5H-pyrrolo[1,2-c]imidazol-1-yl)-2-(6-(6-(6-(2-(1-(4-(((S)-2,6-dioxopiperidin-3-yl)amino)-2-fluorophenyl)-4-hydroxypiperidin-4-yl)acetyl)-2,6-diazaspiro[3.3]heptan-2-yl)pyridin-3-yl)-4-fluoro-1-oxoisoindolin-2-yl)-N-(thiazol-2-yl)acetamide], below 50 nM. Still for that read-out and setting: under `Cn1nc(N2CCC(=O)NC2=O)c2ccc([C@H]3CCN(CC(=O)N4CC5(C4)CN(c4ccc(-c6cc(F)c7cn(C(C(=O)Nc8nccs8)c8ncn9c8CCC9)nc7c6)cc4)C5)CC3(F)F)cc21` (stereo partly drawn) [Compound 76, 2-(6,7-dihydro-5H-pyrrolo[1,2-c]imidazol-1-yl)-2-(6-(4-(6-(2-((R)-4-(3-(2,4-dioxotetrahydropyrimidin-1(2H)-yl)-1-methyl-1H-indazol-6-yl)-3,3-difluoropiperidin-1-yl)acetyl)-2,6-diazaspiro[3.3]heptan-2-yl)phenyl)-4-fluoro-2H-indazol-2-yl)-N-(thiazol-2-yl)acetamide] stands below 50 nM; under `O=C1CCC(Nc2cnc(N3CCC(O)(CC(=O)N4CC5(C4)CN(c4ccc(-c6cc(F)c7c(c6)C(=O)N(C(C(=O)Nc6nccs6)c6ncn8c6CCC8)C7)cc4)C5)CC3)c(F)c2)C(=O)N1` (single isomer, unassigned; isomer 1) [Compound 139, 2-(6,7-dihydro-5H-pyrrolo[1,2-c]imidazol-1-yl)-2-[6-[4-[2-[2-[1-[5-[[2,6-dioxo-3-piperidyl]amino]-3-fluoro-2-pyridyl]-4-hydroxy-4-piperidyl]acetyl]-2,6-diazaspiro[3.3]heptan-6-yl]phenyl]-4-fluoro-1-oxo-isoindolin-2-yl]-N-thiazol-2-yl-acetamide, isomer 1], below 50 nM. On to `Cn1nc(N2CCC(=O)NC2=O)c2ccc(C3CCN(CC(=O)N4CC5(CCN(c6ccc(-c7cc(F)c8c(c7)C(=O)N(C(C(=O)Nc7nccs7)c7ncn9c7CCC9)C8)cc6)CC5)C4)CC3(F)F)cc21` (stereo not drawn) [Compound 106, 2-(6,7-dihydro-5H-pyrrolo[1,2-c]imidazol-1-yl)-2-(6-(4-(2-(2-(4-(3-(2,4-dioxotetrahydropyrimidin-1(2H)-yl)-1-methyl-1H-indazol-6-yl)-3,3-difluoropiperidin-1-yl)acetyl)-2,7-diazaspiro[3.5]nonan-7-yl)phenyl)-4-fluoro-1-oxoisoindolin-2-yl)-N-(thiazol-2-yl)acetamide], for which the half-maximal degradation concentration (DC50) was below 50 nM. For `Cn1nc(N2CCC(=O)NC2=O)c2ccc(C3CCN(CC(=O)N4CCC5(CC4)CN(c4ccc(-c6cc(F)c7c(c6)C(=O)N(C(C(=O)Nc6nccs6)c6ncn8c6CCC8)C7)cc4)C5)CC3(F)F)cc21` (stereo not drawn) [Compound 174], the DC50 was below 50 nM. For `O=C1CCC(c2ccc(N3CCC(O)(CC(=O)N4CC5(C4)CN(c4ccc(-c6cc(F)c7c(c6)C(=O)N(C(C(=O)Nc6nccs6)c6ncn8c6CCC8)C7)cc4)C5)CC3)c(F)c2)C(=O)N1` (stereo not drawn) [Compound 157, 2-(6,7-dihydro-5H-pyrrolo[1,2-c]imidazol-1-yl)-2-(6-(4-(6-(2-(1-(4-(2,6-dioxopiperidin-3-yl)-2-fluorophenyl)-4-hydroxypiperidin-4-yl)acetyl)-2,6-diazaspiro[3.3]heptan-2-yl)phenyl)-4-fluoro-1-oxoisoindolin-2-yl)-N-(thiazol-2-yl)acetamide], the DC50 was above 150 nM.

Take `Cn1nc(N2CCC(=O)NC2=O)c2ccc([C@@H]3CCN(C(=O)CN4CC5(CCN(c6ccc(-c7cc(F)c8c(c7)C(=O)N(C(C(=O)Nc7nccs7)c7ncn9c7CCC9)C8)cc6)CC5)C4)CC3(F)F)cc21` (stereo partly drawn) [Compound 144, 2-(6,7-dihydro-5H-pyrrolo[1,2-c]imidazol-1-yl)-2-[6-[4-[2-[2-[(4S)-4-[3-(2,4-dioxohexahydropyrimidin-1-yl)-1-methyl-indazol-6-yl]-3,3-difluoro-1-piperidyl]-2-oxo-ethyl]-2,7-diazaspiro[3.5]nonan-7-yl]phenyl]-4-fluoro-1-oxo-isoindolin-2-yl]-N-thiazol-2-yl-acetamide]: the half-maximal degradation concentration (DC50) is below 50 nM. The same measure, in the same setting: then `COc1cc(N2CCC(O)(CC(=O)N3CC4(C3)CN(c3ccc(-c5cc(F)c6c(c5)C(=O)N(C(C(=O)Nc5nccs5)c5ncn7c5CCC7)C6)cc3)C4)CC2)c(F)cc1NC1CCC(=O)NC1=O` (single isomer, unassigned) [Compound 173, 2-(6,7-dihydro-5H-pyrrolo[1,2-c]imidazol-1-yl)-2-[6-[4-[2-[2-[1-[4-[[2,6-dioxo-3-piperidyl]amino]-2-fluoro-5-methoxy-phenyl]-4-hydroxy-4-piperidyl]acetyl]-2,6-diazaspiro[3.3]heptan-6-yl]phenyl]-4-fluoro-1-oxo-isoindolin-2-yl]-N-thiazol-2-yl-acetamide], with below 50 nM; and `Cn1nc(N2CCC(=O)NC2=O)c2ccc(C3CCN(CC(=O)N4CC5(C4)CN(c4ccc(-c6cc(F)c7c(c6)C(=O)N(C(C(=O)Nc6nccs6)c6ncn8c6C[C@@H](F)C8)C7)cc4)C5)CC3(F)F)cc21` (stereo partly drawn) [Compound 116, 2-[6-[4-[2-[2-[4-[3-(2,4-dioxohexahydropyrimidin-1-yl)-1-methyl-indazol-6-yl]-3,3-difluoro-1-piperidyl]acetyl]-2,6-diazaspiro[3.3]heptan-6-yl]phenyl]-4-fluoro-1-oxo-isoindolin-2-yl]-2-[(6R)-6-fluoro-6,7-dihydro-5H-pyrrolo[1,2-c]imidazol-1-yl]-N-thiazol-2-yl-acetamide], with below 50 nM; and `Cn1nc(N2CCC(=O)NC2=O)c2ccc(C3CCN(CC(=O)N4CC5(C4)CN(c4ccc(-c6cc(F)c7c(c6)C(=O)N(C(C(=O)Nc6nccs6)c6ncn8c6CCC8)C7)cc4)C5)CC3F)cc21` (single isomer, unassigned; isomer 2) [Compound 125, 2-(6,7-dihydro-5H-pyrrolo[1,2-c]imidazol-1-yl)-2-[6-[4-[2-[2-[4-[3-(2,4-dioxohexahydropyrimidin-1-yl)-1-methyl-indazol-6-yl]-3-fluoro-1-piperidyl]acetyl]-2,6-diazaspiro[3.3]heptan-6-yl]phenyl]-4-fluoro-1-oxo-isoindolin-2-yl]-N-thiazol-2-yl-acetamide, isomer 2], with below 50 nM.
